Data on 9 compounds can be found in ChEMBL document CHEMBL5096158, “HIV latency reversal agents: A potential path for functional cure?” (Eur J Med Chem, 2021).

A value given as a limit tells only on which side of the number the result lay.

Series [1] deals with Human immunodeficiency virus 1. Nature of the series: Reactivation of HIV-1 latency in human U1 cells assessed as fold increase in HIV transcription by measuring GFP expression at 2 uM incubated for 24 hrs in presence of PEP005 by flow cytometry. Type of series: functional. On the technique in general: In flow cytometry, cells or beads pass a laser one at a time.
Series [2] has as its system Human immunodeficiency virus 1. Nature of the series: Reactivation of HIV-1 latency infected in GFP-fused human J-Lat 9.2 cells assessed as increase in GFP expression at 1 uM incubated for 24 hrs by flow cytometry. The class given is functional.
Series [3] has as its system Human immunodeficiency virus 1. Nature of the series: Reversal of HIV-1 latency in human ACH-2 cells assessed as increase in GFP positive cells incubated for 24 hrs by flow cytometry. Type of series: functional, organism-based, ACH-2 cell line. The following applies: Human immunodeficiency virus 1, ACH-2, 24 h.
A short description of series [4]: Cytotoxicity against human ACH-2 cells assessed as reduction in cell viability incubated for 48 hrs by WST-8 assay. Type of series: toxicity, cell-based.
Series [5] is described as follows: Cytotoxicity against human U1 cells assessed as reduction in cell viability incubated for 48 hrs by WST-8 assay. Type of series: toxicity, cell-based. A general note: Formazan colour is commonly taken as a measure of viable cells.
Series [6] can be described thus: Cytotoxicity against human PBMC cells assessed as reduction in cell viability incubated for 48 hrs by WST-8 assay. Type of series: toxicity, cell-based.
The nature of series [7]: Inhibition of HIV-1 latency infected in human U1 cells assessed as increase in p24 expression level incubated for 48 hrs by ELISA. The class given is functional, cell-based. The following applies: Human immunodeficiency virus 1, U1, 48 h.
The target in series [8] is Protein kinase C gamma type (Homo sapiens, UniProt P05129). Description: Displacement of 3H-PDBu from recombinant human PKCgamma incubated for 25 mins by scintillation counter analysis. A general note: Loss of bound radioactivity is the signal in a displacement assay; it reports binding, not function.
In series [9] the test system is Human immunodeficiency virus 1. Nature of the series: Reactivation of HIV-1 latency infected in GFP-fused human J-Lat C11 cells assessed as increase in GFP expression at 1 to 100000 nM incubated for 48 hrs by flow cytometry. To be noted: dose 1-100000 nM. The class given is functional.
The subject of series [10] is Human immunodeficiency virus 1. Nature of the series: Reactivation of HIV-1 latency infected in GFP-fused human J-Lat 10.6 cells assessed as increase in GFP expression at 1 to 100000 nM incubated for 48 hrs by flow cytometry. To be noted: dose 1-100000 nM. The class given is functional.
The test system of series [11] is Human immunodeficiency virus 1. Description: Reactivation of HIV-1 latency infected in GFP-fused human J-Lat C11 cells assessed as increase in GFP expression incubated for 48 hrs by flow cytometry. Type of series: functional, organism-based. The following applies: Human immunodeficiency virus 1, J-Lat C11, 48 h.
Series [12] concerns Human immunodeficiency virus 1. Description: Reactivation of HIV-1 latency infected in GFP-fused human J-Lat 10.6 cells assessed as increase in GFP expression incubated for 48 hrs by flow cytometry. Type of series: functional, organism-based. To be noted: Human immunodeficiency virus 1, J-Lat 10.6, 48 h.
Series [13] is described as follows: Cytotoxicity against human J-Lat C11 cells assessed as reduction in cell viability incubated for 72 hrs by CCK-8 assay. Type of series: toxicity, cell-based.
The nature of series [14]: Cytotoxicity against human J-Lat 10.6 cells assessed as reduction in cell viability incubated for 72 hrs by CCK-8 assay. Type of series: toxicity, cell-based.
Series [15] concerns Human immunodeficiency virus 1. Nature of the series: Reactivation of HIV-1 latency in human J-Lat Tat-GFP Clone A1 cells assessed as increase in GFP expression at 375 pM incubated for 24 hrs by flow cytometry. Type of series: functional.
The subject of series [16] is Human immunodeficiency virus 1. Nature of the series: Reactivation of HIV-1 latency in human J-Lat Tat-GFP Clone A1 cells assessed as increase in GFP expression at 23 pM incubated for 24 hrs by flow cytometry. Type of series: functional.
Series [17] concerns Human immunodeficiency virus 1. Description: Reactivation of HIV-1 latency in human CD4+ve Th cells assessed as increase in GFP expression at 3 nM incubated for 24 hrs by flow cytometry. Type of series: functional.
The test system of series [18] is Human immunodeficiency virus 1. Nature of the series: Reactivation of HIV-1 latency in human U1 cells assessed as fold increase in HIV transcription by measuring GFP expression at 6 nM incubated for 24 hrs in presence of JQ1 by flow cytometry. Type of series: functional.
For series [19], the system named is Human immunodeficiency virus 1. Description: Reactivation of HIV-1 latency in human U1 cells assessed as fold increase in HIV transcription by measuring GFP expression at 6 nM incubated for 24 hrs by flow cytometry. Type of series: functional.
The test system of series [20] is Human immunodeficiency virus 1. Nature of the series: Reversal of HIV-1 latency in human PBMC from HIV infected donors assessed as increase in p24Gag viral protein level incubated for 24 hrs by ELISA. Type of series: functional.
Series [21] relates to Human immunodeficiency virus 1. Description: Reversal of HIV-1 latency in human J-Lat 9.2 cells assessed as increase in GFP expression incubated for 24 hrs by flow cytometry. The following applies: Human immunodeficiency virus 1, J-Lat 9.2, 24 h. The class given is functional, organism-based.
Series [22] concerns Human immunodeficiency virus 1. Nature of the series: Reversal of HIV-1 latency in human J-Lat 8.4 cells assessed as increase in GFP expression incubated for 24 hrs by flow cytometry. Type of series: functional, organism-based. To be noted: Human immunodeficiency virus 1, J-Lat 8.4, 24 h.
In series [23] the test system is Human immunodeficiency virus 1. Nature of the series: Reversal of HIV-1 latency in human J-Lat 10.6 cells assessed as increase in GFP expression incubated for 24 hrs by flow cytometry. The following applies: Human immunodeficiency virus 1, J-Lat 10.6, 24 h. The class given is functional, organism-based.

Turning to `Cc1sc2c(c1C)C(c1ccc(Cl)cc1)=N[C@@H](CC(=O)OC(C)(C)C)c1nnc(C)n1-2`, the “fold change (FC)” value in series [1] amounted to 250.

`CCCc1nc2c(N)nc3ccccc3c2s1`: in [2], the Activity is on record as 18%.

With `CCCCCCCCCCc1ccc2c(c1)N(C)[C@@H](C(C)C)C(=O)NC(CO)C2` (stereo partly specified), the concentration giving a half-maximal response (EC50) in [3] was found to be 25 nM. Further, the half-maximal cytotoxic concentration (CC50) at 48 h stood at 21.1 µM in series [4], 61.2 µM in series [5] and 39.9 µM in series [6].

As to `CC1=C[C@H]2[C@@]3(O)[C@H](C)C[C@]4(OC(=O)Cc5cccc6ccccc56)[C@H]([C@@H]3C=C(CO)C[C@]2(O)C1=O)C4(C)C`, the concentration giving a half-maximal response (EC50) in series [7] worked out at 10.2 nM. In addition, the inhibition constant Ki in [8] was found to be 0.65 nM.

As to `CCCCCCCCCCCC(=O)OCC1=C[C@H]2C(=O)[C@]3(C=C(C)[C@H](OC(=O)CC(C)C(C)C)[C@@]3(O)[C@@H]1O)[C@H](C)CC1C2C1(C)C` (stereo partly specified), the values for the Activity in [9] and in series [10] were 80% and 90%, respectively. In addition, the EC50 in [11] turned out to be 3.53 nM; in series [12] it was 4.06 nM. In addition, the CC50 at 72 h was 68.5 nM in series [13] and 94.2 nM in [14].

For the compound `CCCCCC(=O)O[C@H]1C(C)=C[C@]23C(=O)[C@H](C=C(CO)[C@@H](O)[C@]12O)C1C(C[C@H]3C)C1(C)C` (stereo partly specified), the Activity in series [15] was determined as 50%; in series [16], 20%; in series [17] it was 100%.

Turning to `C/C=C(\C)C(=O)O[C@H]1C(C)=C[C@]23C(=O)[C@H](C=C(CO)[C@@H](O)[C@]12O)C1C(C[C@H]3C)C1(C)C` (stereo partly specified), the “fold change (FC)” value in series [18] was 250; in series [19], 25.

Turning to `CO[C@@H](CC[C@H](C)[C@H]1O[C@@]23C[C@H](OC(=O)C[C@H]([C@@H](C)O)OC(=O)C[C@](O)(O2)[C@H](C)CC3(C)C)[C@@H]1C)c1cc(O)ccc1Br` [APLYSIATOXIN], in series [20], the Activity was 56%.

For the compound `CC(=O)O[C@@]12C[C@@H](C)[C@@]3(O)[C@@H](C=C(CO)C[C@]4(O)C(=O)C(C)=C[C@@H]34)[C@@H]1C2(C)C` [PROSTRATIN], the EC50 is 768 nM in [11]; 865 nM in series [12]; greater than 1000 nM in [7]; 45 nM in [21]; 11 nM in series [22]; 3.3 nM in series [23].

A word on the EC50: it is the concentration giving half of the maximal effect. As usually defined, the CC50 is the concentration that lowers cell viability or growth by half. As a reminder, the Ki is the dissociation constant of the complex between target and ligand, obtained from inhibition or displacement.
